In patent US5061711A, “Method of curing liver diseases by using pyrrolo quinoline quinone triesters and novel pyrrolo quinoline quinone triesters” (Mitsubishi Gas Chemical Company, Inc., priority 1989, dated 1991):
Read-outs that look alike come from different tables or passages of the source.

Experiments:
[1] = Solubility; format: physicochemical
[2] = bovine, not told, 960 min
Description: Each compound dissolved in 10 mM HEPES buffer (containing 1%DMSO in the case of PQQ triesters) was put in an apparatus for measurement of membrane permeation constant and left to stand for 16 hours at 35 ° C. and then amount of the compound which migrated was measured by ultraviolet absorption (243 nm for PQQ 2Na and 255 nm for PQQ triester) to obtain membrane permeation constant.

[3] = test system: liver diseases; conditions: cited from earlier work
[4] = test system: mice; assay: Kidney toxicity determined by urine test; format: in vivo, mouse; conditions: mouse, in vivo, ip
Description: (2) Kidney toxicity determined by urine test
PQQ.2Na, PQQ trimethyl ester and PQQ triallyl ester were intraperitoneally administered to mice and they were bred in the same manner as in the above acute toxicity test. The doses per kg of body weight of mouse were 20, 40 and 80 mg for PQQ.2Na and 20, 40, 80, 160 and 200 mg for PQQ triesters. Urine was collected every day and glucose concentration was examined using clinical examination reagent (trademark: […] II manufactured by Miles.Sankyo Co.).

[5] = test system: kidney; conditions: Watanabe et al 1989; cited from earlier work
[6] = test system: mice; assay: Kidney toxicity determined by blood examination; format: in vivo, mouse; conditions: mouse, in vivo, ip
Description: (3) Kidney toxicity determined by blood examination:
After lapse of one day from the administration, the mice were fasted (only water was given) and then after 18 hours, blood was collected and serum was obtained therefrom. Glucose, urea nitrogen and creatinine in the serum were examined by clinical examination reagent (trademark: FUJI DRYCHEMSLIDE manufactured by Fuji Photo Film Co., Ltd.). The results are shown by average value of eight mice in Table 3.

[7] = test system: male mice SPF-ICR; assay: Acute toxicity test; conditions: mouse, in vivo, ip
Description: To male mice SPF-ICR five weeks old (supplied by Japan Charles River Co.) were intraperitoneally administered PQQ.2Na, PQQ trimethyl ester and PQQ triallyl ester at dosages of 40, 80, 160 and 200 mg per kg of body weight of mouse, respectively and they were bred for 14 days at 25° C. One group consisted of 8 mice. For administration, PQQ.2Na was dissolved in physiological saline and PQQ trimethyl ester and PQQ triallyl ester were suspended in 1%Tween 80-containing physiological saline, respectively.

For `O=C(OCc1ccccc1)c1cc(C(=O)OCc2ccccc2)c2c(n1)C(=O)C(=O)c1cc(C(=O)OCc3ccccc3)[nH]c1-2` [PQQ tribenzyl ester], the Solubility ([1]; acetone) was “Very soluble”, the Solubility ([1]; chloroform) was “Very soluble” and the Solubility ([1]; ethanol) was “Very soluble”. The Solubility ([1]; methanol) was “Very soluble” and the Solubility ([1]; water) was “hardly soluble”.
For `CCOC(=O)c1cc(C(=O)OCC)c2c(n1)C(=O)C(=O)c1cc(C(=O)OCC)[nH]c1-2` [PQQ triethyl ester], the Membrane permeation constant [2] was 1.22 ± 0.37 10^-7 cm^2 · sec^-1 and the “membrane permeation constant relative to that of PQQ.2Na” value [2] was “about 2 times”.
In the case of `O=C(O)c1cc(C(=O)O)c2c(n1)C(=O)C(=O)c1cc(C(=O)O)[nH]c1-2` [PQQ, pyrrolo quinoline quinone], the “inhibition of liver diseases” value ([3]; administered intraperitoneally, Japanese Patent Kokai No. 63-192717) is listed as “inhibit liver diseases”, the “inhibition of liver diseases” value ([3]; orally administered, Watanabe et al 1988) is listed as “not observed” and the “kidney toxicity by urine test (in words)” value [4] is listed as “showed kidney toxicity”. For the same compound, the kidney toxicity [5] was “has kidney toxicity”.
For `O=C(O)c1cc(C(=O)O)c2c(n1)C(=O)C(=O)c1cc(C(=O)O)[nH]c1-2` [PQQ.2Na, reference compound], the “glucose in urine (in words)” value [4] was “glucose was detected”, the glucose in urine ([4]; 20 mg/kg) was “-” and the glucose in urine ([4]; 40 mg/kg) was “-”. For the same compound, the glucose in urine ([4]; 80 mg/kg) was “-”, the Membrane permeation constant [2] was 0.68 ± 0.36 10^-7 cm^2 · sec^-1 and the “creatinine in serum (in words)” value [6] was “much increase”. The “glucose in serum (in words)” value [6] was “Sharp reduction”, the “kidney toxicity (in words)” value [6] was “kidney toxicity was observed” and the “urea nitrogen in serum (in words)” value [6] was “much increase”. For the same compound, the Creatinine in serum ([6]; 20 mg/kg) was 0.5 mg/dL, the Glucose in serum ([6]; 20 mg/kg) was 70 mg/dL and the “Urea nitrogen in serum” value ([6]; 20 mg/kg) was 21 mg/dL. The Creatinine in serum ([6]; 40 mg/kg) was 2.3 mg/dL, the Glucose in serum ([6]; 40 mg/kg) was 60 mg/dL and the “Urea nitrogen in serum” value ([6]; 40 mg/kg) was 110 mg/dL. For the same compound, the Creatinine in serum ([6]; 80 mg/kg) was 3.4 mg/dL, the Glucose in serum ([6]; 80 mg/kg) was 57 mg/dL and the “Urea nitrogen in serum” value ([6]; 80 mg/kg) was 130 mg/dL. The Creatinine in serum ([6]; 160 mg/kg) was 4.2 mg/dL, the Glucose in serum ([6]; 160 mg/kg) was 35 mg/dL and the “Urea nitrogen in serum” value ([6]; 160 mg/kg) was 139 mg/dL. For the same compound, the mice died ([7]; 40 mg/kg) was “No mice died”, the mice died ([7]; 80 mg/kg) was “five mice died” and the mice died ([7]; 160 mg/kg) was “eight mice all died”. For the same compound, the mice died ([7]; 200 mg/kg) was “eight mice all died”.
